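48-hour exposure; five concentrations; linearly interpolated endpoints. GI50 is the concentration that inhibits growth by half. TGI: concentration producing complete growth inhibition.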

Test systems include CAKI-1 renal; DU-145 prostate; IGROV1 ovarian; NCI-H226 lung; NCI-H460 lung; OVCAR-8 ovarian; SF-268 CNS; SK-MEL-5 melanoma; U251 CNS; UACC-257 melanoma.
Experiment in all cases: inhibition of tumour cell growth, NCI panel, 48 h

For `COc1c(B(O)O)cccc1-c1nc2ccc3[nH]ncc3c2c2c1CCCC2`, the GI50 with CAKI-1 renal is 0.0171 µM; in the test with DU-145 prostate it was 2.23 µM; with IGROV1 ovarian, 2.25 µM; in the test on NCI-H226 lung it was 1.51 µM; with NCI-H460 lung, 1.43 µM; in the test with OVCAR-8 ovarian it was 2.39 µM. Further, the GI50 is 1.95 µM in the test with SF-268 CNS, 3.18 µM in the test on SK-MEL-5 melanoma, 2.69 µM with U251 CNS and 2.88 µM in the test on UACC-257 melanoma. The TGI in the test with CAKI-1 renal is 0.252 µM; with DU-145 prostate, 25.9 µM; with IGROV1 ovarian, 14.3 µM; in the test on NCI-H226 lung, 12.2 µM; with NCI-H460 lung it was 11.2 µM; in the test with OVCAR-8 ovarian, greater than 38.8 µM. Besides, the TGI in the test with SF-268 CNS worked out at 12.5 µM; with SK-MEL-5 melanoma, 12.5 µM; in the test with U251 CNS, 18.5 µM; in the test with UACC-257 melanoma it was 24.6 µM.

As for `c1cc(C2CCCCC2)ccc1-c1cnc2nonc2n1`, the GI50 with CAKI-1 renal is 1.08 µM; in the test on DU-145 prostate, 1.35 µM; with IGROV1 ovarian, 1.13 µM; in the test with NCI-H226 lung it was 1.75 µM; in the test on NCI-H460 lung, 1.38 µM; with OVCAR-8 ovarian, 1.38 µM. The GI50 in the test with SF-268 CNS was 2.13 µM; with SK-MEL-5 melanoma, 1.29 µM; in the test with U251 CNS, 1.18 µM; in the test with UACC-257 melanoma, 1.28 µM. Besides, the TGI with CAKI-1 renal was 3.18 µM; in the test with DU-145 prostate it was 3.02 µM; in the test with IGROV1 ovarian, 3.15 µM; in the test on NCI-H226 lung, 4.22 µM; in the test on NCI-H460 lung, 3.64 µM; in the test on OVCAR-8 ovarian, greater than 19.8 µM. Further, the TGI was 9.29 µM in the test with SF-268 CNS, 2.62 µM with SK-MEL-5 melanoma, 2.44 µM in the test with U251 CNS and 3.9 µM in the test with UACC-257 melanoma.

For the compound `Cc1nc2sc(C(=O)Nc3ccccc3)c(N)c2cc1C(O)c1ccccc1` (centres undefined), the GI50 in the test with CAKI-1 renal is 0.243 µM; in the test with DU-145 prostate it was 0.362 µM; in the test with IGROV1 ovarian, 0.445 µM; in the test with NCI-H226 lung it was 1.24 µM; in the test with NCI-H460 lung, 0.329 µM; in the test on OVCAR-8 ovarian it was 0.408 µM. For the same compound, the GI50 is 0.917 µM in the test with SF-268 CNS, 0.338 µM in the test on SK-MEL-5 melanoma, 0.292 µM with U251 CNS and 4.21 µM in the test with UACC-257 melanoma. In addition, the TGI in the test with CAKI-1 renal was greater than 100 µM; in the test on DU-145 prostate it was 20.9 µM; with IGROV1 ovarian it was 44.4 µM; with NCI-H226 lung, greater than 100 µM; with NCI-H460 lung it was 1.73 µM; with OVCAR-8 ovarian, greater than 100 µM. Moreover, the TGI with SF-268 CNS was greater than 100 µM; in the test with SK-MEL-5 melanoma it was 1.63 µM; in the test with U251 CNS, greater than 100 µM; with UACC-257 melanoma it was greater than 52 µM.

For `O=C1C(Cl)=C(Nc2cc(Cl)ccc2O)C(=O)N1Cc1ccccc1`, the GI50 is 18.3 µM with CAKI-1 renal; 18 µM in the test with DU-145 prostate; 5.53 µM in the test on IGROV1 ovarian; 8.66 µM in the test on NCI-H226 lung; 17.7 µM in the test on NCI-H460 lung; 17.5 µM in the test on OVCAR-8 ovarian. Also, the GI50 in the test on SF-268 CNS is 17.5 µM; in the test on SK-MEL-5 melanoma it was 16.1 µM; in the test on U251 CNS, 15.8 µM; with UACC-257 melanoma, 14.1 µM. The TGI with CAKI-1 renal worked out at 40.9 µM; with DU-145 prostate, 33.5 µM; with IGROV1 ovarian it was 26.4 µM; in the test with NCI-H226 lung it was 21.9 µM; in the test on NCI-H460 lung it was 34.3 µM; with OVCAR-8 ovarian it was 36.4 µM. Besides, the TGI with SF-268 CNS amounted to 35 µM; in the test on SK-MEL-5 melanoma, 29.9 µM; in the test with U251 CNS, 29.6 µM; in the test with UACC-257 melanoma, 28.3 µM.

For `CCCCSc1nc(N)c2cn[nH]c2n1`, the GI50 in the test on CAKI-1 renal was 18.2 µM; in the test with DU-145 prostate it was 23.9 µM; in the test on IGROV1 ovarian, 29.5 µM; in the test with NCI-H226 lung, 15.6 µM; in the test with NCI-H460 lung, 19.6 µM; with OVCAR-8 ovarian, 23.2 µM. Also, the GI50 with SF-268 CNS is 22.2 µM; in the test with SK-MEL-5 melanoma, 15.5 µM; with U251 CNS, 28.1 µM; in the test with UACC-257 melanoma, 19.4 µM. For the same compound, the TGI is 44.4 µM in the test with CAKI-1 renal; 72 µM in the test with DU-145 prostate; greater than 100 µM in the test with IGROV1 ovarian; 36.6 µM in the test with NCI-H226 lung; 51.1 µM in the test on NCI-H460 lung; greater than 60.4 µM in the test with OVCAR-8 ovarian. The TGI is greater than 59.4 µM in the test on SF-268 CNS, 33.2 µM with SK-MEL-5 melanoma, greater than 64.1 µM with U251 CNS and 35 µM in the test on UACC-257 melanoma.

`COc1cc2c(NC3CCN(C(C)C)CC3)nc(C3CCCCC3)nc2cc1OCCCN1CCCC1`: the GI50 with CAKI-1 renal is 5.01 µM; in the test with DU-145 prostate, 4.75 µM; in the test with IGROV1 ovarian, 12.5 µM; in the test on NCI-H226 lung, 12.3 µM; with NCI-H460 lung, 3.45 µM; with OVCAR-8 ovarian, 3.97 µM. For the same compound, the GI50 is 3.37 µM with SF-268 CNS, 1.68 µM in the test with SK-MEL-5 melanoma, 1.97 µM in the test on U251 CNS and 1.67 µM in the test with UACC-257 melanoma. Besides, the TGI with CAKI-1 renal worked out at 11.2 µM; in the test on DU-145 prostate, 17.1 µM; with IGROV1 ovarian it was 26.9 µM; in the test with NCI-H226 lung, 26.9 µM; with NCI-H460 lung it was 12.9 µM; with OVCAR-8 ovarian, 15.6 µM. Besides, the TGI with SF-268 CNS stood at 14.1 µM; with SK-MEL-5 melanoma, 3.11 µM; in the test on U251 CNS it was 5.11 µM; with UACC-257 melanoma, 3.25 µM.

As to `C[C@H]1COCCN1c1nc(-c2cnc(N)cc2C(F)F)nc(N2CCOCC2)n1`, the GI50 is 0.102 µM in the test on CAKI-1 renal; 0.285 µM in the test with DU-145 prostate; 0.0364 µM in the test with IGROV1 ovarian; 0.127 µM with NCI-H226 lung; 0.113 µM with NCI-H460 lung; 0.291 µM with OVCAR-8 ovarian. In addition, the GI50 with SF-268 CNS was 0.265 µM; with SK-MEL-5 melanoma it was 0.15 µM; in the test on U251 CNS, 0.368 µM; with UACC-257 melanoma it was 0.166 µM. Moreover, the TGI in the test on DU-145 prostate is greater than 100 µM; in the test on IGROV1 ovarian, 0.285 µM; with NCI-H226 lung it was greater than 100 µM; in the test with NCI-H460 lung, greater than 100 µM; with OVCAR-8 ovarian, greater than 100 µM; in the test on SF-268 CNS, greater than 100 µM. Besides, the TGI in the test on SK-MEL-5 melanoma is 0.651 µM; in the test on U251 CNS, greater than 100 µM; in the test with UACC-257 melanoma, 1.58 µM.

For `CCN(CC)/[N+]([O-])=N/OCOC`, the TGI with CAKI-1 renal, in the test with DU-145 prostate, with IGROV1 ovarian, in the test with NCI-H226 lung, in the test on NCI-H460 lung and in the test on OVCAR-8 ovarian was greater than 100 µM each time. The TGI in the test with SF-268 CNS, with SK-MEL-5 melanoma, in the test on U251 CNS and in the test with UACC-257 melanoma was greater than 100 µM in each case.
